{"source": "patent US6653354B2", "about": "“NMDA antagonist comprising xenon” (priority 1999, dated 2003)", "key": {"[1]": {"tested_on": "glutamatergic synapses (NMDA receptor slow component, AMPA/KA receptor fast component) of hippocampal neurons", "assay": "Excitatory (glutamatergic) postsynaptic currents, voltage-clamped autaptic hippocampal neurons", "format": "cell-based, rat", "description": "Hippocampal neurons were grown in culture using methods described previously (Segal M M et al, J. Neurophysiol. 1990, 64:1390-1399; Bekkers J M et al, Proc. Natl. Acad. Sci. U.S.A. 1991, 88:7834-7838; Mennerick S et al, J. Neurophysiol. 1995, 73:320-332). Briefly, hippocampi from Sprague Dawley rats (postnatal day 1-3) were dissected, roughly sliced and agitated in a papain-containing solution (20 units ml^−1) for 30 minutes at 37 EC. After washing with enzyme-free solution, the tissue was gently triturated with a fire-polished Pasteur pipette and the cells were plated out at a density of 8-10×10^4 cells ml^−1 and cultured (95% air/5% CO2) at 37° C. Glass coverslips used for culturing the cells were first coated with agarose (0.15% w/v) and then sprayed with a fine mist of poly-D-lysine (PDL) and collagen (0.1 mg ml^−1 PDL and 0.5 mg ml^−1 rat-tail collagen) from a glass micro-atomiser and sterilized by UV exposure. This produced micro-islands of permissive substrate with diameters of between 100 and 1000 μm. At 3-4 days after plating, when the glial cell layer was about 80% confluent, an anti-mitotic agent (cytosine β-D-arabinofuranoside, 5 μM) was added to arrest glial cell proliferation. Neuronal cultures were then allowed to mature for another 4-9 days. We used micro-islands which contained single isolated neurons whose axonal processes and dendritic trees formed multiple self-synapses (autapses). This procedure provided a large population of phenotypically identical monosynaptic connections.\nThe neurons were voltage-clamped using the whole-cell recording technique (Axopatch 200 amplifier, Axon Instruments, Foster City, Calif.). Electrodes were fabricated from borosilicate glass and typically had resistances of between 3-5 MΩ. Series resistance was compensated by 75-90%. Neurons were voltage-clamped at −60 mV, and synaptic responses were stimulated by a 2 ms depolarising pulse to +20 mV. […] For the synaptic measurements, data were sampled at 50 kHz, filtered at 20 kHz (−3 dB, 8-pole Bessel) and stored on a computer. The extracellular recording solution was (mM) 137 NaCl, 5 KCl, 3 CaCl2, 5 HEPES, 10 glucose, 0.001 glycine, 0.0001 strychnine-HCl, titrated to pH 7.3 with NaOH; and the intracellular (pipette) solution was (mM) 140 KCl, 4 NaCl, 0.5 EGTA, 2 MgATP, 10 HEPES, titrated to pH 7.25 with KOH.\nXenon solutions were prepared by first bubbling pure gases (oxygen, nitrogen or xenon) through fine sintered-glass bubblers in 250- or 500-ml Drechsel bottles filled with extracellular recording saline. […] (To minimise oxidization, the neurotoxins and neurotransmitters were excluded from the fully oxygenated saline.) During bubbling, the solutions were continually stirred at room temperature. These solutions were then mixed to achieve the desired final concentrations of the gases. Our control solutions usually contained 80% of the nitrogen solution and 20% of the oxygen solution, while our test solutions usually contained 80% of the xenon solution and 20% of the oxygen solution. Using a Bunsen water/gas partition coefficient of 0.0965 (Smith R A et al, Biochim. Biophys. Acta 1981, 645:327-338) we calculate that our standard test solution contained 3.4 mM xenon. Xenon (research grade, 99.993% pure) was supplied by BOC gases, Guildford, Surrey, UK. In all cases xenon was pre-applied to the neurons for at least 30 seconds before the initiation of synaptic currents.\nIn order to obtain an estimate for the total charge transfer, the EPSCs or IPSCs were numerically integrated."}, "[2]": {"tested_on": "neurons of arcuate nucleus of hypothalamus", "assay": "NMA-induced neuron injury in the arcuate nucleus (neuroprotection in vivo)", "parameters": "species or system Sprague Dawley female adult rats", "settings": "MK801 0.5 mg/kg s.c. + NMA 100 mg/kg s.c.", "description": "It can be seen that NMA caused neuronal degeneration and vacuoulated swelling in the neuropil giving a spongiform appearance in the arcuate nucleus (E). The degenerated neuron has a pyknotic nucleus, which look like “bulls' eyes” because of oedematous swelling of the cytoplasmic compartment.\nRats were injected with NMA (100 mg/kg) sc and sacrificed 4 hours later after exposure to air (“NMA”; n=7) or xenon 75% (“75% xenon+NMA”; n=8). (For comparison the effect of MK801, the NMDA antagonist, is also shown). The arcuate nucleus was removed and sectioned and stained with cresyl violet. Control animals (“PS”; n=6) had neither NMA nor xenon administered. Data are reflected as either the mean of three sections/animal (upper) or the sum (lower) of degenerated neurons in both arcuate nuclei."}, "[3]": {"tested_on": "c Fos expression in arcuate nucleus of hypothalamus", "assay": "c Fos expression in arcuate nucleus after NMA (inhibition of synaptic plasticity in vivo)", "parameters": "species or system Sprague Dawley female adult rats", "settings": "MK801 0.5 mg/kg s.c. + NMA 100 mg/kg s.c.", "description": "With exposure to NMA neuronal activation is enhanced (E vs A) which is indicative of synaptic plasticity. In the presence of both Xenon (D) and MK 801 (B), synaptic plasticity induced by NMA is inhibited. […] This is sometimes referred to as long term potentiation, an example of synaptic plasticity. […] The attenuation of c Fos expression is a reflection of the inhibition of synaptic plasticity."}, "NMDA receptors": {"tested_on": "NMDA receptors", "format": "cell-based, rat", "settings": "neurons clamped at −60 mV"}, "[4]": {"tested_on": "adenylyl cyclase (AC) / alpha-2 adrenergic receptors", "assay": "Adenylyl cyclase activity in neuroblastoma X glioma hybrid cell line (synaptic plasticity paradigm)", "format": "cell-based", "description": "Perturbation of function in the central nervous system can be produced by a change in the strength of neural connections, which is referred to as synaptic plasticity. The present inventors have used the neuroblastoma X glioma hybrid cell line to examine the effect of xenon on synaptic plasticity. In this paradigm the alpha-2 adrenergic receptors, which are pivotally involved in synaptic transmission, inhibit adenylyl cyclase (AC).\nTo examine the inhibitory effect of alpha-2 adrenergic receptors on AC it is first necessary to stimulate the endogenous AC with Prostaglandin E1 (PGE1).\nTo induce “synaptic plasticity” cells are pretreated for 8 hours with norepinephrine; after preparing homogenates from thoroughly washed cells, re-applied norepinephrine loses its inhibitory effect on PGE1-stimulated AC activity."}, "[5]": {"settings": "excitatory currents + 200 μM AP5"}}}
{"compound": "NC(CCCP(=O)(O)O)C(=O)O", "note": "(racemic) [AP5, DL-2-amino-5-phosphononpentanoate, reference compound]", "values": [{"measurement": "reduction in total charge transfer", "setting": "[1]; 200 μM AP5", "result": 75, "unit": "%"}, {"measurement": "Decay half-time % change (means ± SEM)", "setting": "[1]; [5]", "result": "−24.1 ± 3.3", "unit": "%"}, {"measurement": "Ifast % change (means ± SEM)", "setting": "[1]; [5]", "result": "6.8 ± 6.2", "unit": "%"}, {"measurement": "Ipeak % change (means ± SEM)", "setting": "[1]; [5]", "result": "−16.3 ± 2.1", "unit": "%"}, {"measurement": "Islow % change (means ± SEM)", "setting": "[1]; [5]", "result": "−98.8 ± 0.8", "unit": "%"}, {"measurement": "Qfast % change (means ± SEM)", "setting": "[1]; [5]", "result": "5.3 ± 9.6", "unit": "%"}, {"measurement": "Qslow % change (means ± SEM)", "setting": "[1]; [5]", "result": "−96.0 ± 3.4", "unit": "%"}, {"measurement": "Total charge transfer % change (means ± SEM)", "setting": "[1]; [5]", "result": "−75.2 ± 2.5", "unit": "%"}, {"measurement": "τfast % change (means ± SEM)", "setting": "[1]; [5]", "result": "−5.9 ± 2.3", "unit": "%"}]}
{"compound": "C[C@]12N[C@H](Cc3ccccc31)c1ccccc12", "note": "[MK801, reference compound]", "values": [{"measurement": "NMA-induced neuronal injury (cresyl fast violet histology)", "setting": "[2]", "result": "prevented NMA-induced injury"}, {"measurement": "synaptic plasticity induced by NMA (c Fos expression)", "setting": "[3]", "result": "is inhibited"}]}
{"compound": "CN[C@H](CC(=O)O)C(=O)O", "note": "[NMDA, N-methyl-D-aspartate]", "values": [{"measurement": "Hill coefficient", "setting": "NMDA receptors", "result": "1.2±0.1"}, {"measurement": "EC50", "setting": "NMDA receptors; read-out: EC50 for activation of inward current", "result": "24 ± 2", "unit": "µM"}]}
{"compound": "CCCCC[C@H](O)/C=C/[C@H]1[C@H](O)CC(=O)[C@@H]1CCCCCCC(=O)O", "note": "[PGE1, Prostaglandin E1]", "values": [{"measurement": "effect on adenylyl cyclase (AC) activity", "setting": "[4]; increasing doses of PGE1", "result": "dose-dependently stimulates"}]}
{"compound": "NC[C@H](O)c1ccc(O)c(O)c1", "note": "[norepinephrine]", "values": [{"measurement": "effect on PGE1-stimulated AC activity", "setting": "[4]; norepinephrine coadministered with PGE1", "result": "dose-dependently inhibited"}]}
